The record followed here is ChEMBL document CHEMBL1201862, “PubChem BioAssay data set” (2004).

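Step 1: Grow cells in 96-well plates. Step 2: Expose to compound for 48 hours at 5 concentrations. Step 3: Interpolate endpoints linearly; if unreached, use highest concentration. GI50: concentration for 50% inhibition of growth.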 Calls of active or inactive are those of the source. No stated cut-off is given here; in the data, active = GI50 up to about 1.1 µM and inactive = higher. Some results are limits rather than exact numbers.

Test systems include OVCAR-8; HCC 2998; SW-620; RPMI-8226; KM-20L2; UACC-62; MOLT-4; K562; 786-0; HCT-15; OVCAR-5; NCI-H460; U-251; DLD-1; HT-29; DMS-273.
Common to all, as to experiment: NCI anticancer screen, dose series, 48 h

`CC(=O)c1cccc(C)c1C(=O)O`: the GI50 in the assay with OVCAR-8, in the assay on HCC 2998, with SW-620, in the assay on RPMI-8226, with KM-20L2 and in the assay on UACC-62 was > 100 µM (inactive) each time. The GI50 in the assay on MOLT-4 is > 100 µM (inactive); with K562, > 100 µM (inactive); in the assay with 786-0 it was > 100 µM (inactive); with HCT-15, above 100 µM; in the assay on OVCAR-5 it was > 100 µM (inactive); in the assay with NCI-H460, > 100 µM (inactive). Also, the GI50 in the assay on U-251, with DLD-1, in the assay on HT-29 and in the assay with DMS-273 was > 100 µM (inactive) each time.

As for `O=C1C=C(c2ccccc2)NC1(c1ccccc1)c1cc(-c2ccccc2)[nH]c1-c1ccccc1` (centres undefined), the GI50 in the assay on OVCAR-8, in the assay with HCC 2998, in the assay on SW-620, in the assay on KM-20L2, with UACC-62 and with MOLT-4 was > 100 µM (inactive) in each case. The GI50 in the assay on K562 was > 100 µM (inactive); in the assay on 786-0, > 100 µM (inactive); with HCT-15, above 100 µM; with NCI-H460 it was > 100 µM (inactive); in the assay on U-251, > 100 µM (inactive); in the assay on DLD-1, > 100 µM (inactive). For the same compound, the GI50 in the assay on HT-29 and in the assay with DMS-273 was > 100 µM (inactive) throughout.

Regarding `CCC1=C(CC)C1(C#N)[N+](=O)[O-]`, the GI50 is > 100 µM (inactive) with OVCAR-8; > 100 µM (inactive) in the assay on SW-620; 82.2 µM (inactive) in the assay on RPMI-8226; > 100 µM (inactive) with KM-20L2; > 100 µM (inactive) in the assay on UACC-62; > 100 µM (inactive) in the assay on MOLT-4. The GI50 with K562 was > 100 µM (inactive); in the assay on 786-0, > 100 µM (inactive); in the assay with HCT-15 it was above 100 µM; in the assay on OVCAR-5, > 100 µM (inactive); in the assay with NCI-H460 it was > 100 µM (inactive); in the assay on U-251, > 100 µM (inactive). Also, the GI50 in the assay with DLD-1, in the assay on HT-29 and with DMS-273 was > 100 µM (inactive) each time.

On to `COc1cc([C@@H]2c3cc4c(cc3[C@@H](NCc3cccc(C#N)c3)C3COC(=O)[C@@H]32)OCO4)cc(OC)c1O` (some centres undefined), for which the GI50 with OVCAR-8 was 1.43 µM (inactive); in the assay with HCC 2998, 1.48 µM (inactive); in the assay on SW-620, 0.646 µM (active); with RPMI-8226, 1.2 µM (inactive); in the assay with KM-20L2, 1.58 µM (inactive); in the assay with UACC-62 it was 0.524 µM (active). For the same compound, the GI50 in the assay on MOLT-4 is 0.0386 µM (active); in the assay with K562 it was 1.83 µM (inactive); with 786-0 it was 1.02 µM (active); in the assay with HCT-15, 1.17 µM; in the assay on OVCAR-5 it was 2.84 µM (inactive); in the assay on NCI-H460, 0.0356 µM (active). In addition, the GI50 in the assay on U-251 is 0.303 µM (active); with DLD-1, 1.7 µM (inactive); in the assay on HT-29 it was 1.48 µM (inactive); with DMS-273, 0.349 µM (active).

For `Cc1cc(=O)n(-c2c(C)cccc2Cl)c(/C=C(\O)c2ccncc2)n1`, the GI50 with OVCAR-8, with HCC 2998, in the assay on SW-620, in the assay with KM-20L2, with UACC-62 and with MOLT-4 was > 100 µM (inactive) in each case. Further, the GI50 in the assay on K562 is 44.8 µM (inactive); in the assay with 786-0, > 100 µM (inactive); with HCT-15, above 100 µM; with OVCAR-5, 98.6 µM (inactive); in the assay on NCI-H460 it was > 100 µM (inactive); with U-251 it was > 100 µM (inactive). Further, the GI50 in the assay on DLD-1, in the assay on HT-29 and in the assay on DMS-273 was > 100 µM (inactive) each time.

For `O=C(O)c1ccc(Nc2nc3nn(Cc4ccccc4)cc3c(=O)s2)cc1`, the GI50 in the assay with OVCAR-8, with HCC 2998, in the assay with SW-620, with RPMI-8226, in the assay on KM-20L2 and in the assay on MOLT-4 was > 100 µM (inactive) each time. The GI50 is > 100 µM (inactive) in the assay with K562; > 100 µM (inactive) in the assay on 786-0; above 100 µM in the assay with HCT-15; > 100 µM (inactive) in the assay on OVCAR-5; > 100 µM (inactive) in the assay with NCI-H460; > 100 µM (inactive) in the assay with U-251. Further, the GI50 in the assay with DLD-1 and with DMS-273 was > 100 µM (inactive) each time.

As for `OC(c1ccccc1Br)(c1ccccc1Br)C(F)(F)F`, the GI50 with OVCAR-8 was 39.4 µM (inactive); in the assay with HCC 2998 it was 0.322 µM (active); with SW-620, 19.4 µM (inactive); in the assay on KM-20L2, 24.5 µM (inactive); with UACC-62 it was 26.8 µM (inactive); with MOLT-4 it was 14.9 µM (inactive). The GI50 is 19.1 µM (inactive) in the assay with 786-0; 30.4 µM in the assay on HCT-15; 25.4 µM (inactive) in the assay with OVCAR-5; 27.7 µM (inactive) with NCI-H460; 18.6 µM (inactive) in the assay with U-251; 37.5 µM (inactive) in the assay on DLD-1. For the same compound, the GI50 in the assay on HT-29 is 14.7 µM (inactive); with DMS-273, 20.3 µM (inactive).

Consider `Oc1cccc(C2SCc3nc4ccccc4n32)c1` (centres undefined), for which the GI50 is 96.2 µM (inactive) with OVCAR-8; > 100 µM (inactive) in the assay with HCC 2998; > 100 µM (inactive) with SW-620; 39.3 µM (inactive) in the assay with RPMI-8226; 77.1 µM (inactive) with UACC-62; 31.6 µM (inactive) with MOLT-4. Moreover, the GI50 with K562 was 16.9 µM (inactive); in the assay on 786-0 it was > 100 µM (inactive); in the assay on OVCAR-5 it was 26.2 µM (inactive); with NCI-H460, 60.7 µM (inactive); with U-251 it was 84.5 µM (inactive); with DLD-1, 44.3 µM (inactive). For the same compound, the GI50 with HT-29 was > 100 µM (inactive); in the assay on DMS-273 it was 47.1 µM (inactive).

Turning to `O=C(CCC(=O)Nc1cccc(Cl)c1)CC(=O)c1ccc(F)cc1`, the GI50 with OVCAR-8, in the assay on HCC 2998, in the assay on SW-620, in the assay with RPMI-8226, in the assay on KM-20L2 and in the assay on UACC-62 was > 100 µM (inactive) in each case. For the same compound, the GI50 is > 100 µM (inactive) with MOLT-4; > 100 µM (inactive) in the assay with K562; > 100 µM (inactive) in the assay with 786-0; above 100 µM with HCT-15; > 100 µM (inactive) with OVCAR-5; > 100 µM (inactive) with NCI-H460. Also, the GI50 in the assay with DLD-1, in the assay with HT-29 and in the assay with DMS-273 was > 100 µM (inactive) in each case.

With `Cc1cccc(N(CC(=O)O)S(=O)(=O)c2ccccc2)c1`, the GI50 in the assay on OVCAR-8, with HCC 2998, with SW-620, in the assay with RPMI-8226, in the assay on KM-20L2 and in the assay with UACC-62 was > 100 µM (inactive) each time. Moreover, the GI50 in the assay with MOLT-4 was > 100 µM (inactive); in the assay on K562 it was > 100 µM (inactive); in the assay on 786-0, > 100 µM (inactive); in the assay with HCT-15, above 100 µM; in the assay on OVCAR-5 it was > 100 µM (inactive); in the assay with NCI-H460, > 100 µM (inactive). Further, the GI50 in the assay with U-251, in the assay on DLD-1, with HT-29 and with DMS-273 was > 100 µM (inactive) in each case.
